These results are taken from patent US12145913B2, “Inhibition of Olig2 activity” (Curtana Pharmaceuticals, Inc., priority 2016, dated 2024).

In the first assay the test system is GBM8 human glioblastoma cells. Put plainly: GBM8 viability assay (Cell Titer Glo). Format: cell-based. To be noted: 72 h, Table 1, 3 days incubation, luminescence. A digest of the protocol: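 Patient-derived GBM4 and GBM8 neurosphere cells, 4000 per well in EGF/bFGF/heparin-supplemented NeuroCult medium, were exposed to compound (added in 1% DMSO solution) for 3 days at 37° C. Growth was read by CellTiter-Glo luminescence versus DMSO wells, and IC50s came from 4-parameter fits of serial dilutions.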
A general note: ATP-based viability assays read luminescence as a measure of living cells.
For the compound `Cc1cc(NCCCN(C)C)nc(NC(=O)Nc2ccc(Oc3ccccc3)cc2)n1` [Compound 133, 1-(4-((3-(dimethylamino)propyl)amino)-6-methylpyrimidin-2-yl)-3-(4-phenoxyphenyl)urea], the IC50 – broadly, the concentration at which inhibition is half-maximal – is below 500 nM.

Compound `CCNc1cc(C)nc(NC(=O)Nc2ccc(Oc3ccccc3)cc2)n1` [Compound 134, 1-(4-(ethylamino)-6-methylpyrimidin-2-yl)-3-(4-phenoxyphenyl)urea] yielded an IC50 below 500 nM.

In turn, `Cc1cc(NCCCN(C)C)nc(NC(=O)Nc2ccc(OC(C)C)cc2)n1` [Compound 136, 1-(4-((3-(dimethylamino)propyl)amino)-6-methylpyrimidin-2-yl)-3-(4-isopropoxyphenyl)urea] had an IC50 below 500 nM.

Regarding `Cc1cc(NCCN(C)C)nc(NC(=O)Nc2ccc(OC(C)C)cc2)n1` [Compound 137, 1-(4-((2-(dimethylamino)ethyl)amino)-6-methylpyrimidin-2-yl)-3-(4-isopropoxyphenyl)urea], the IC50 was below 500 nM.

`Cc1cc(NCCNS(C)(=O)=O)nc(NC(=O)Nc2ccc(OC(C)C)cc2)n1` [Compound 139, N-(2-((2-(3-(4-isopropoxyphenyl)ureido)-6-methylpyrimidin-4-yl)amino)ethyl)methanesulfonamide]: the IC50 was below 500 nM.

As to `CC(=O)NCCNc1cc(C)nc(NC(=O)Nc2ccc(OC(C)C)cc2)n1` [Compound 140, N-(2-((2-(3-(4-isopropoxyphenyl)ureido)-6-methylpyrimidin-4-yl)amino)ethyl)acetamide], the IC50 is below 500 nM.

As to `CC(=O)NCCCNc1cc(C)nc(NC(=O)Nc2ccc(OC(C)C)cc2)n1` [Compound 142, N-(3-((2-(3-(4-isopropoxyphenyl)ureido)-6-methylpyrimidin-4-yl)amino)propyl)acetamide], the IC50 is below 500 nM.

Compound `CNc1cc(C)nc(NC(=O)Nc2ccc(OC(F)(F)F)cc2)n1` [Compound 144, 1-(4-methyl-6-(methylamino)pyrimidin-2-yl)-3-(4-(trifluoromethoxy)phenyl)urea] returned an IC50 below 500 nM.

In turn, `Cc1cc(NCCO)nc(NC(=O)Nc2ccc(OC(F)(F)F)cc2)n1` [Compound 145, 1-(4-((2-hydroxyethyl)amino)-6-methylpyrimidin-2-yl)-3-(4-(trifluoromethoxy)phenyl)urea] showed a half-inhibitory concentration (IC50) below 500 nM.

For `CONc1cc(C)nc(NC(=O)Nc2ccc(OC(F)(F)F)cc2)n1` [Compound 146, 1-(4-(methoxyamino)-6-methylpyrimidin-2-yl)-3-(4-(trifluoromethoxy)phenyl)urea], the IC50 was 500 to 5000 nM.

Compound `Cc1cc(NO)nc(NC(=O)Nc2ccc(OC(F)(F)F)cc2)n1` [Compound 147, 1-(4-(hydroxyamino)-6-methylpyrimidin-2-yl)-3-(4-(trifluoromethoxy)phenyl)urea] yielded a half-maximal inhibitory concentration (IC50) below 500 nM.

`Cc1cc(NCCCN(C)C)nc(NC(=O)Nc2ccc(OC(F)(F)F)c(Cl)c2)n1` [Compound 149, 1-(3-chloro-4-(trifluoromethoxy)phenyl)-3-(4-((3-(dimethylamino)propyl)amino)-6-methylpyrimidin-2-yl)urea] had an IC50 below 500 nM.

In turn, `Cc1cc(NCCN)nc(NC(=O)Nc2ccc(OC(F)(F)F)c(Cl)c2)n1` [Compound 150, 1-(4-((2-aminoethyl)amino)-6-methylpyrimidin-2-yl)-3-(3-chloro-4-(trifluoromethoxy)phenyl)urea] registered an IC50 below 500 nM.

As for `Cc1cc(NCCNS(C)(=O)=O)nc(NC(=O)Nc2ccc(OC(F)(F)F)c(Cl)c2)n1` [Compound 151, N-(2-((2-(3-(3-chloro-4-(trifluoromethoxy)phenyl)ureido)-6-methylpyrimidin-4-yl)amino)ethyl)methanesulfonamide], the IC50 is below 500 nM.

The compound `Cc1cc(NCCCN(C)C)nc(NC(=O)Nc2ccc(OC(F)(F)F)c(C)c2)n1` [Compound 153, 1-(4-((3-(dimethylamino)propyl)amino)-6-methylpyrimidin-2-yl)-3-(3-methyl-4-(trifluoromethoxy)phenyl)urea] gave an IC50 below 500 nM.

For `Cc1cc(NCCCN)nc(NC(=O)Nc2ccc(C(=O)c3ccccc3)cc2)n1` [Compound 155, 1-(4-((3-aminopropyl)amino)-6-methylpyrimidin-2-yl)-3-(4-benzoylphenyl)urea], the IC50 is below 500 nM.

Consider `CN(C)CCCNc1ccnc(NC(=O)Nc2ccc(Cl)c(Cl)c2)n1` [Compound 157, 1-(3,4-dichlorophenyl)-3-(4-((3-(dimethylamino)propyl)amino)pyrimidin-2-yl)urea], for which the 50% inhibitory concentration (IC50) fell in the range of 500 to 5000 nM.

In turn, `O=C(Nc1ccc(Cl)c(Cl)c1)Nc1nccc(NO)n1` [Compound 158, 1-(3,4-dichlorophenyl)-3-(4-(hydroxyamino)pyrimidin-2-yl)urea] gave an IC50 of 500 to 5000 nM.

With `CN(C)CCCNc1ccnc(NC(=O)Nc2ccc3ccccc3c2)n1` [Compound 160, 1-(4-((3-(dimethylamino)propyl)amino)pyrimidin-2-yl)-3-(naphthalen-2-yl)urea], the IC50 was below 500 nM.

As to `O=C(Nc1ccc2ccccc2c1)Nc1nccc(NO)n1` [Compound 161, 1-(4-(hydroxyamino)pyrimidin-2-yl)-3-(naphthalen-2-yl)urea], the IC50 was in the range of 500 to 5000 nM.

Consider `O=C(Nc1ccc(OC(F)(F)F)cc1)Nc1nccc(Cl)n1` [Compound 162, 1-(4-Chloropyrimidin-2-yl)-3-(4-(trifluoromethoxy)phenyl)urea], for which the IC50 was below 500 nM.

`CN(C)CCCNc1ccnc(NC(=O)Nc2ccc(OC(F)(F)F)cc2)n1` [Compound 163, 1-(4-((3-(dimethylamino)propyl)amino)pyrimidin-2-yl)-3-(4-(trifluoromethoxy)phenyl)urea] gave an IC50 of 500 to 5000 nM.

Consider `CN(C)CCCNc1nc(NC(=O)Nc2ccc(Cl)c(Cl)c2)ncc1F` [Compound 168, 1-(3,4-dichlorophenyl)-3-(4-((3-(dimethylamino)propyl)amino)-5-fluoropyrimidin-2-yl)urea], for which the IC50 is 500 to 5000 nM.

Compound `CNCCCNc1cc(C(C)C)nc(NC(=O)Nc2ccc(Cl)c(Cl)c2)n1` [Compound 184, 1-(3,4-dichlorophenyl)-3-(4-isopropyl-6-((3-(methyl-amino)propyl)amino)pyrimidin-2-yl)urea] gave an IC50 of 500 to 5000 nM.

Compound `CC(C)c1cc(NO)nc(NC(=O)Nc2ccc(Cl)c(Cl)c2)n1` [Compound 185, 1-(3,4-dichlorophenyl)-3-(4-(hydroxyamino)-6-isopropyl-pyrimidin-2-yl)urea] gave an IC50 of 500 to 5000 nM.

Regarding `CC(C)c1cc(NO)nc(NC(=O)Nc2ccc3ccccc3c2)n1` [Compound 187, 1-(4-(hydroxyamino)-6-isopropylpyrimidin-2-yl)-3-(naphthalen-2-yl)urea], the IC50 fell in the range of 500 to 5000 nM.

For `CC(C)c1cc(NCCCN(C)C)nc(NC(=O)Nc2ccc3ccccc3c2)n1` [Compound 188, 1-(4-((3-(dimethylamino)propyl)amino)-6-isopropylpyrimidin-2-yl)-3-(naphthalen-2-yl)urea], the IC50 lay in the range of 500 to 5000 nM.

Still in this assay, the particulars now being: 72 h, Table 2, 3 days incubation, luminescence.
`CC(C)c1cc(N)nc(NC(=O)Nc2ccc3ccccc3c2)n1` [Compound 190, 1-(4-amino-6-isopropylpyrimidin-2-yl)-3-(naphthalen-2-yl)urea] came in with an IC50 of 5000 to 30000 nM.

Regarding `CNCCCNc1cc(C(C)C)nc(NC(=O)Nc2ccc3ccccc3c2)n1` [Compound 192, 1-(4-isopropyl-6-((3-(methylamino)propyl)amino)pyrimidin-2-yl)-3-(naphthalen-2-yl)urea], the IC50 fell in the range of 500 to 5000 nM.

For the compound `CC(C)c1cc(NCCCN(C)C)nc(NC(=O)Nc2ccc(OC(F)(F)F)cc2)n1` [Compound 194, 1-(4-((3-(dimethylamino)propyl)amino)-6-isopropylpyrimidin-2-yl)-3-(4-(trifluoromethoxy)phenyl)urea], the IC50 was in the range of 500 to 5000 nM.

`CC(C)c1cc(N)nc(NC(=O)Nc2ccc(OC(F)(F)F)cc2)n1` [Compound 196, 1-(4-amino-6-isopropylpyrimidin-2-yl)-3-(4-(trifluoro-methoxy)phenyl)urea]: the IC50 was 500 to 5000 nM.

The compound `CNCCCNc1cc(C(C)C)nc(NC(=O)Nc2ccc(OC(F)(F)F)cc2)n1` [Compound 198, 1-(4-isopropyl-6-((3-(methylamino)propyl)amino)pyrimidin-2-yl)-3-(4-(trifluoromethoxy)phenyl)urea] yielded an IC50 of 500 to 5000 nM.

`CC(C)c1cc(NO)nc(NC(=O)Nc2ccc(OC(F)(F)F)cc2)n1` [Compound 199, 1-(4-(hydroxyamino)-6-isopropylpyrimidin-2-yl)-3-(4-(trifluoromethoxy)phenyl)urea] displayed an IC50 of 500 to 5000 nM.

Turning to `CN(C)CCCNc1cc(C2CC2)nc(NC(=O)Nc2ccc(Cl)c(Cl)c2)n1` [Compound 204, 1-(4-cyclopropyl-6-((3-(dimethylamino)propyl)amino)-pyrimidin-2-yl)-3-(3,4-dichlorophenyl)urea], the IC50 is 500 to 5000 nM.

In the case of `CNCCCNc1cc(C2CC2)nc(NC(=O)Nc2ccc(Cl)c(Cl)c2)n1` [Compound 206, 1-(4-cyclopropyl-6-((3-(methylamino)propyl)amino)pyrimidin-2-yl)-3-(3,4-dichlorophenyl)urea], the IC50 was in the range of 5000 to 30000 nM.

The compound `O=C(Nc1ccc(Cl)c(Cl)c1)Nc1nc(NO)cc(C2CC2)n1` [Compound 207, 1-(4-cyclopropyl-6-(hydroxyamino)pyrimidin-2-yl)-3-(3,4-dichlorophenyl)urea] displayed a half-inhibitory concentration (IC50) of 500 to 5000 nM.

For the compound `CN(C)CCCNc1cc(C2CC2)nc(NC(=O)Nc2ccc(OC(F)(F)F)cc2)n1` [Compound 209, 1-(4-cyclopropyl-6-((3-(dimethylamino)propyl)amino)-pyrimidin-2-yl)-3-(4-(trifluoromethoxy)phenyl)urea], the IC50 lay within 500 to 5000 nM.

For `CNCCCNc1cc(C2CC2)nc(NC(=O)Nc2ccc(OC(F)(F)F)cc2)n1` [Compound 211, 1-(4-cyclopropyl-6-((3-(methylamino)propyl)amino)pyrimidin-2-yl)-3-(4-(trifluoromethoxy)phenyl)urea], the IC50 is 500 to 5000 nM.

Compound `O=C(Nc1ccc(OC(F)(F)F)cc1)Nc1nc(NO)cc(C2CC2)n1` [Compound 212, 1-(4-cyclopropyl-6-(hydroxyamino)pyrimidin-2-yl)-3-(4-(trifluoromethoxy)phenyl)urea] registered an IC50 of 500 to 5000 nM.
